Experiments:
[1] = system: paclitaxel-induced neuropathy model; experiment: Paclitaxel-induced thermoparesthesia in the paclitaxel-induced neuropathy model; type: in vivo, rats; details: for maximum inhibition rate (thermoparesthesia): paclitaxel 6 mg/kg i.v. 5-times every other day
[2] = system: patients with advanced non-small cell lung carcinoma (NSCLC); experiment: Japan Phase III Clinical Trial (paclitaxel + cisplatin, placebo-controlled; PNQ primary evaluation); type: in vivo, human; details: paclitaxel/Tavocept/cisplatin vs paclitaxel/saline placebo/cisplatin, NSCLC patients (Figure 5)
Protocol: The Japan Phase III Clinical Trial was conducted as a double-blind study because peripheral neuropathy is diagnosed based on subjective symptoms evaluated through clinical interviews, lab tests, and the like. Accordingly, evaluations by both physicians and patients are highly important. […] A placebo was used as control since there is no established therapy or drug for preventing peripheral neuropathy. Because the severity of peripheral neuropathy is evaluated based on patients' reports (i.e., subjective symptoms), the Peripheral Neuropathy Questionnaire (PNQ^© was used in primary evaluation. The CIPN-20 questionnaire and the National Cancer Institute - Common Toxicity Criteria (NCI-CTC) were used in secondary evaluation. The incidence and severity of adverse reactions, time to their onset, etc. and the like, were compared between patients treated with Tavocept™ and those given a placebo using the aforementioned methods.
The Primary Endpoint of the Japan Phase III Clinical Trial described in the present invention was specifically designed to test the hypothesis of whether chemotherapy-induced intermittent peripheral neuropathy would occur. […] The results illustrated in Figure 3 indicate that intermittent peripheral neuropathy was specifically identified and measured in the Japan Phase III Clinical Trial. […]

[3] = human, in vivo
Protocol: • Figure 1 illustrates a comparison of the number of hypersensitivity Adverse Events between groups of patients in whom 2,2'-dithio-bis-ethane sulfonate or a placebo was infused over (1) 30 minutes, (2) 30 and 45 minutes, or (3) 45 minutes. […] Drug concentrations of disodium 2,2'-dithio-bis-ethane sulfonate administered were 200 mg/mL infused over 30 minutes, 200 mg/mL and 100 mg/mL infused over 30 & 45 minutes, respectively, and 100 mg/mL infused over 45 minutes.
The patients' body surface area (BSA) was determined based on the use of standard methods that are customarily used for such purposes, including standardized nomograms and calculations that utilize the individual height and weight data from each patient.
Figure 1 illustrates a comparison of the number of hypersensitivity Adverse Events between groups of patients in whom 2,2'-dithio-bis-ethane sulfonate or a placebo was infused over (1) 30 minutes, (2) 30 minutes and 45 minutes, or (3) 45 minutes. In addition, the total number of hypersensitivity Adverse Events, the mean time to the first hypersensitivity Adverse Event, and a variety of the types of hypersensitivity Adverse Events were also shown.
Drug concentrations administered were about 200 mg/mL infused over about 30 minutes, about 200 mg/mL and about 100 mg/mL infused over about 30 & about 45 minutes, respectively, and about 100 mg/mL infused over about 45 minutes.

tubulin = details: paclitaxel 6 µM; cited from earlier work

## O=S(=O)([O-])CCSSCCS(=O)(=O)[O-].[Na+].[Na+] [Tavocept, disodium 2,2'-dithio-bis-ethane sulfonate]
[1]; 1,000 mg/kg
  maximum inhibition rate (thermoparesthesia): 41.7%
[1]; 2,000 mg/kg i.v. immediately after paclitaxel 12 mg/kg i.p. once a week for 5 weeks
  inhibition rates of thermoparesthesia: 19.2-34.1%
[1]; 2,000 mg/kg
  maximum inhibition rate (thermoparesthesia): 41.5%
[2]
  reduction in severe (Grade D or E) intermittent or cumulative peripheral neuropathy: ~50%
[3]
  reduction in hypersensitivity Adverse Events in the treatment population: ≤ 57%
tubulin
  concentration that inhibits tubulin polymerization induced by paclitaxel: 6 mM

From EP2252246B1, “CHEMOPROTECTIVE METHODS AND COMPOSITIONS” (BIONUMERIK PHARMACEUTICALS, INC., priority 2008, dated 2009)
